# According to patent publication US20260001928A1 (CORTERIA PHARMACEUTICALS, priority 2022, published 2026):
# *1 amine or outer side, *2 acyl side, *3 side chain or, on linkers, in order; H or OH if unused. Where a SMILES comes first, the peptide text is derived from it. Side-chain parts run from the residue outwards. [ ]: non-standard residue; d: D form. The star is where a group is joined. C20 diacid = O=C(O)CCCCCCCCCCCCCCCCCCC(=O)*; C16 diacid = O=C(O)CCCCCCCCCCCCCCC(=O)*; γGlu = O=C(O)[C@H](CCC(=O)[*:2])N[*:1]; C14 diacid = O=C(O)CCCCCCCCCCCCC(=O)*; C12 diacid = O=C(O)CCCCCCCCCCC(=O)*; NMeI = CC[C@H](C)[C@H](NC)C(=O)O; αMeL = CC(C)C[C@](C)(N)C(=O)O; Api = NC1(C(=O)O)CCNCC1; Dap = NC[C@H](N)C(=O)O; Pentanoyl = CCCCC(=O)*; AEEA = NCCOCCOCC(=O)O; Aib = CC(C)(N)C(=O)O
# What was measured:
# CFR1R receptor = biological target: T1, CFR1R receptor (Homo sapiens, UniProt P34998); assay: Activity at anti-target CFR1R receptor, cAMP assay in CRF1R-overexpression CHO-K1 cells; assay type: cell-based; conditions: 100% = Sauvagine at 100 nM; for EC50: cAMP
# T1 construct: host or cells: CHO-K1 (clone 2)
# T1 sequence (P34998 24-415): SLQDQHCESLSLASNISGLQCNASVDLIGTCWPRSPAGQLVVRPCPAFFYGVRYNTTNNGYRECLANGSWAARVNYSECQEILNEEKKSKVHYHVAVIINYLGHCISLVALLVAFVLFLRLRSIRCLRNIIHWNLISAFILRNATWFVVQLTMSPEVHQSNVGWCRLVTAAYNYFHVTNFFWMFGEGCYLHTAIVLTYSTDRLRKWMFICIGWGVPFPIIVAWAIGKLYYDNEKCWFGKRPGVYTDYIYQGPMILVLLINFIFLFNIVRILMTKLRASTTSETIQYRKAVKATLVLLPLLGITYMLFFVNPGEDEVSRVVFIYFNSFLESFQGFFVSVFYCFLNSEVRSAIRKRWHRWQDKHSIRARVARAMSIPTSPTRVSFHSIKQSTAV
# In short: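 Signal is normalised to 100 nM Sauvagine, taken as 100% activation, in clone 2 cells plated at a final 4000 cells/well from frozen stocks.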
# human CRF2a receptor = biological target: T2, human CRF2a receptor (Homo sapiens, UniProt Q13324); assay: Activity at human CRF2a receptor, cAMP functional assay in TeloHEAC cells; assay type: cell-based; conditions: TeloHEAC cells stably expressing human CRF2a receptor, relative to urocortin 2 (100 nM = 100%)
# T2 construct: expressed in transfected cells; host or cells: TeloHEAC cells
# T2 sequence (Q13324 1-411): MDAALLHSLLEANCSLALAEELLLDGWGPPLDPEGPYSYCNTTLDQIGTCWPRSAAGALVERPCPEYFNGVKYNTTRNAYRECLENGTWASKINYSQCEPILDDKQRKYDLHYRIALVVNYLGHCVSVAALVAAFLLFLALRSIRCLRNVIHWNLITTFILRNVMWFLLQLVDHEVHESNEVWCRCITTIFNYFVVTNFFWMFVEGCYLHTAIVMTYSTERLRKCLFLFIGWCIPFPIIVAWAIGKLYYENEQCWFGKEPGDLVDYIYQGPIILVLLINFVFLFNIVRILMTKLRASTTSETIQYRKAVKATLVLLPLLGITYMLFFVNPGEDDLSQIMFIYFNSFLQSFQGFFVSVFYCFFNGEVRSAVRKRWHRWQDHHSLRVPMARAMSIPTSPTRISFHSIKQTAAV
# In short: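 TeloHEAC cells stably expressing human CRF2a (10000 cells/well, suspended in HBSS/20 mM HEPES with 2 mM IBMX) were exposed to compounds for 30 min at 37 °C. cAMP was read as the 665/620 nm fluorescence ratio after 1 h at room temperature. EC50 was derived relative to 100 nM urocortin 2, set as 100%.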
SMILES,Emax (% I) (CFR1R receptor),EC50 (CFR1R receptor) [nM],EC50 (human CRF2a receptor) [nM]
CCCCC(=O)N[C@H](C(=O)N[C@@H](CC(C)C)C(=O)N[C@@H](CO)C(=O)N[C@@H](CC(C)C)C(=O)N[C@@H](CC(=O)O)C(=O)N[C@@H](C(=O)N1CCC[C@H]1C(=O)N[C@H](C(=O)N[C@@H](CCCCN)C(=O)N[C@@H](CC(C)C)C(=O)N[C@@H](CCCCNC(=O)COCCOCCNC(=O)COCCOCCNC(=O)CC[C@H](NC(=O)CC[C@H](NC(=O)CCCCCCCCCCCCC(=O)O)C(=O)O)C(=O)O)C(=O)N[C@@H](CCCCN)C(=O)N[C@H](C(=O)N[C@@H](CC(C)C)C(=O)N[C@@H](CC(C)C)C(=O)N[C@@H](CCC(=O)O)C(=O)N[C@@H](CCC(N)=O)C(=O)N[C@@H](CCC(=O)O)C(=O)N[C@@H](CCCCN)C(=O)N[C@@H](CCC(N)=O)C(=O)N[C@@H](CCCCN)C(=O)N[C@@H](CCCCN)C(=O)N[C@@H](CCC(N)=O)C(=O)N[C@@H](CCCNC(=N)N)C(=O)N[C@@H](CCC(=O)O)C(=O)N[C@@H](CCC(N)=O)C(=O)N[C@@H](C)C(=O)N[C@@H](CCC(=O)O)C(=O)N[C@H](C(=O)N[C@@H](CC(N)=O)C(=O)NC(C)(C)C(=O)N[C@@H](CCC(N)=O)C(=O)N[C@H](C(=O)N[C@@H](CC(C)C)C(=O)N[C@@H](C)C(=O)N[C@@H](CCC(N)=O)C(=O)N[C@H](C(N)=O)C(C)C)[C@@H](C)CC)[C@@H](C)O)[C@@H](C)CC)[C@@H](C)CC)C(C)C)C(C)C [compound 181] (Pentanoyl-VLSLD[dV]PIKLK([AEEA-AEEA-γGlu-γGlu-C14 diacid])KILLEQEKQKKQREQAETN[Aib]QILAQV-NH2),9,> 250,24.7
CC[C@H](C)[C@H](NC(C)=O)C(=O)N[C@H](C(=O)N[C@@H](CC(C)C)C(=O)N[C@@H](CO)C(=O)N[C@@H](CC(C)C)C(=O)N[C@@H](CC(=O)O)C(=O)N[C@@H](C(=O)N1CCC[C@H]1C(=O)N[C@H](C(=O)N[C@@H](CCCCN)C(=O)N[C@@H](CC(C)C)C(=O)N[C@@H](CCCCNC(=O)CC[C@H](NC(=O)CCCCCCCCCCCCCCCCCCC(=O)O)C(=O)O)C(=O)N[C@@H](CCCCN)C(=O)N[C@H](C(=O)N[C@@H](CC(C)C)C(=O)N[C@@H](CC(C)C)C(=O)N[C@@H](CCC(=O)O)C(=O)N[C@@H](CCC(N)=O)C(=O)N[C@@H](CCC(=O)O)C(=O)N[C@@H](CCCCN)C(=O)N[C@@H](CCC(N)=O)C(=O)N[C@@H](CCCCN)C(=O)N[C@@H](CCCCN)C(=O)N[C@@H](CCC(N)=O)C(=O)N[C@@H](CCCNC(=N)N)C(=O)N[C@@H](CCC(=O)O)C(=O)N[C@@H](CCC(N)=O)C(=O)N[C@@H](C)C(=O)N[C@@H](CCC(=O)O)C(=O)N[C@H](C(=O)N[C@@H](CC(N)=O)C(=O)NC1(C(=O)N[C@@H](CCC(N)=O)C(=O)N[C@H](C(=O)N[C@@H](CC(C)C)C(=O)N[C@@H](C)C(=O)N[C@@H](CCC(N)=O)C(=O)N[C@H](C(N)=O)C(C)C)[C@@H](C)CC)CCNCC1)[C@@H](C)O)[C@@H](C)CC)[C@@H](C)CC)C(C)C)C(C)C [compound 207] (Ac-IVLSLD[dV]PIKLK([γGlu-C20 diacid])KILLEQEKQKKQREQAETN[Api]QILAQV-NH2),65,–,0.12
CC[C@H](C)[C@H](N)C(=O)N[C@H](C(=O)N[C@@H](CC(C)C)C(=O)N[C@@H](CO)C(=O)N[C@@H](CC(C)C)C(=O)N[C@@H](CC(=O)O)C(=O)N[C@H](C(=O)N1CCC[C@H]1C(=O)N[C@H](C(=O)N[C@@H](CCCCN)C(=O)N[C@@](C)(CC(C)C)C(=O)N[C@@H](CCCCNC(=O)CC[C@H](NC(=O)CCCCCCCCCCCCCCC(=O)O)C(=O)O)C(=O)N[C@@H](CCCCN)C(=O)N[C@H](C(=O)N[C@@H](CC(C)C)C(=O)N[C@@H](CC(C)C)C(=O)N[C@@H](CCC(=O)O)C(=O)N[C@@H](CCC(N)=O)C(=O)N[C@@H](CCC(=O)O)C(=O)N[C@@H](CCCCN)C(=O)N[C@@H](CCC(N)=O)C(=O)N[C@@H](CCCCN)C(=O)N[C@@H](CCCCN)C(=O)N[C@@H](CCC(N)=O)C(=O)N[C@@H](CCCNC(=N)N)C(=O)N[C@@H](CCC(=O)O)C(=O)N[C@@H](CCC(N)=O)C(=O)N[C@@H](C)C(=O)N[C@@H](CCC(=O)O)C(=O)N[C@H](C(=O)N[C@@H](CC(N)=O)C(=O)NC(C)(C)C(=O)N[C@@H](CCC(N)=O)C(=O)N[C@H](C(=O)N[C@@H](CC(C)C)C(=O)N[C@@H](C)C(=O)N[C@@H](CCC(N)=O)C(=O)N[C@H](C(N)=O)C(C)C)[C@@H](C)CC)[C@@H](C)O)[C@@H](C)CC)[C@@H](C)CC)C(C)C)C(C)C [compound 38] (H-IVLSLDVPIK[αMeL]K([γGlu-C16 diacid])KILLEQEKQKKQREQAETN[Aib]QILAQV-NH2),6,> 250,0.49

# Further lines, results first:
Emax (% I) (CFR1R receptor),EC50 (CFR1R receptor) [nM],EC50 (human CRF2a receptor) [nM],SMILES
1,> 250,1.88,CC[C@H](C)[C@H](NC(C)=O)C(=O)N[C@H](C(=O)N[C@@H](CC(C)C)C(=O)N[C@@H](CO)C(=O)N[C@@H](CC(C)C)C(=O)N[C@@H](CC(=O)O)C(=O)N[C@@H](C(=O)N1CCC[C@H]1C(=O)N[C@H](C(=O)N[C@@H](CCCCN)C(=O)N[C@@H](CC(C)C)C(=O)N[C@@H](CCCCNC(=O)CC[C@H](NC(=O)CCCCCCCCCCC(=O)O)C(=O)O)C(=O)N[C@@H](CCCCN)C(=O)N[C@H](C(=O)N[C@@H](CC(C)C)C(=O)N[C@@H](CC(C)C)C(=O)N[C@@H](CCC(=O)O)C(=O)N[C@@H](CCC(N)=O)C(=O)N[C@@H](CCC(=O)O)C(=O)N[C@@H](CCCCN)C(=O)N[C@@H](CCC(N)=O)C(=O)N[C@@H](CCCCN)C(=O)N[C@@H](CCCCN)C(=O)N[C@@H](CCC(N)=O)C(=O)N[C@@H](CCCNC(=N)N)C(=O)N[C@@H](CCC(=O)O)C(=O)N[C@@H](CCC(N)=O)C(=O)N[C@@H](C)C(=O)N[C@@H](CCC(=O)O)C(=O)N[C@H](C(=O)N[C@@H](CC(N)=O)C(=O)NC(C)(C)C(=O)N[C@@H](CCC(N)=O)C(=O)N[C@H](C(=O)N[C@@H](CC(C)C)C(=O)N[C@@H](C)C(=O)N[C@@H](CCC(N)=O)C(=O)N[C@H](C(N)=O)C(C)C)[C@@H](C)CC)[C@@H](C)O)[C@@H](C)CC)[C@@H](C)CC)C(C)C)C(C)C [compound 182] (Ac-IVLSLD[dV]PIKLK([γGlu-C12 diacid])KILLEQEKQKKQREQAETN[Aib]QILAQV-NH2)
0,> 250,0.17,CC[C@H](C)[C@H](NC)C(=O)N[C@H](C(=O)N[C@@H](CC(C)C)C(=O)N[C@@H](CO)C(=O)N[C@@H](CC(C)C)C(=O)N[C@@H](CC(=O)O)C(=O)N[C@@H](C(=O)N1CCC[C@H]1C(=O)N[C@H](C(=O)N[C@@H](CCCCN)C(=O)N[C@@H](CC(C)C)C(=O)N[C@@H](CCCCNC(=O)CC[C@H](NC(=O)CCCCCCCCCCCCCCC(=O)O)C(=O)O)C(=O)N[C@@H](CCCCN)C(=O)N[C@H](C(=O)N[C@@H](CC(C)C)C(=O)N[C@@H](CC(C)C)C(=O)N[C@@H](CCC(=O)O)C(=O)N[C@@H](CCC(N)=O)C(=O)N[C@@H](CCC(=O)O)C(=O)N[C@@H](CCCCN)C(=O)N[C@@H](CCC(N)=O)C(=O)N[C@@H](CCCCN)C(=O)N[C@@H](CCCCN)C(=O)N[C@@H](CCC(N)=O)C(=O)N[C@@H](CCCNC(=N)N)C(=O)N[C@@H](CCC(=O)O)C(=O)N[C@@H](CCC(N)=O)C(=O)N[C@@H](C)C(=O)N[C@@H](CCC(=O)O)C(=O)N[C@H](C(=O)N[C@@H](CC(N)=O)C(=O)N[C@@H](CN)C(=O)N[C@@H](CCC(N)=O)C(=O)N[C@H](C(=O)N[C@@H](CC(C)C)C(=O)N[C@@H](C)C(=O)N[C@@H](CCC(N)=O)C(=O)N[C@H](C(N)=O)C(C)C)[C@@H](C)CC)[C@@H](C)O)[C@@H](C)CC)[C@@H](C)CC)C(C)C)C(C)C [compound 70] (H-[NMeI]VLSLD[dV]PIKLK([γGlu-C16 diacid])KILLEQEKQKKQREQAETN[Dap]QILAQV-NH2)
